Test results: patent US20240336571A1, “NOVEL CYCLOPROPYL COMPOUNDS” (ICAGEN, LLC, priority 2021, published 2024)

Molecular target: human Kv7.2 (Homo sapiens (Human), UniProt O43526)
Experiment: SyncroPatch 384 electrophysiology, activation of Kv7.2 in CHO cells
Format: cell-based
Details: for EC50: CHO cells stably expressing human Kv7.2, potassium current at -90 mV repolarizing step, in presence of zinc pyrithione; for Emax: CHO
Method: The potency of Kv7 potentiators was determined using the SyncroPatch 384 (Nanion) high throughput electrophysiology platform.
CHO cells stably expressing either human Kv7.2, Kv7.4 or Kv7.5/7.3 under a constitutive CMV promoter were used for these studies. Cells were maintained in F12 Hams+1 mM L-glutamine (Hyclone) supplemented with 10% FBS (Sigma), 0.3×NEAA (Non-essential Gamino-acids) and 400 ug/ml G418 at 37° C. in 5% CO2. Cells were cultured in T-225 flasks (Nunc) for 2-3 days to reach 85-95% confluence prior to electrophysiological recording.
Earle's balanced salt solution (in mM): 135 NaCl, 5.4 KCl, 5 Glucose, 2 CaCl2, 1 MgCl2, 5 HEPES, pH 7.4. Seal enhancer solution (in mM): 90 NaCl, 3 KCl, 35 CaCl2, 10 MgCl2, 10 HEPES, pH 7.4. Extracellular recording solution (in mM): 71 NaCl, 70 NMDG, 13 KCl, 5 Glucose, 2 CaCl2, 1 MgCl2, 10 HEPES, pH 7.4. Intracellular recording solution (in mM): 130 KF, 20 KCl, 4 EGTA, 10 HEPES, 2 EDTA, 0.01 Escin, pH 7.2.
Cells were harvested for electrophysiological recording upon reaching appropriate confluence. Cells were first washed in DPBS (Hyclone, Cat #SH30028.03) and then 2 ml of Accutase (MP Biomedicals #1000449) was added at 28° C. until ˜90% of cells were suspended. F12 HAM's media+1 mM L-glutamine (Hyclone, SH30026.02) was then added to the flask to dilute the accutase. Cells were then triturated until a single cell suspension was achieved, a cell count was performed, and cells were centrifuged for 2 min. at 1,000 rpm. Media was then aspirated, and cells were resuspended in Earle's balanced salt solution to a concentration of 0.75×10^6 cells/ml and allowed to recover for 25 min at 10° C.
At the beginning of each assay, 20 μl of cell suspension was dispensed into each well of a multi-hole 384-well SyncroPatch chip by the onboard pipettor. Cell sealing was initiated, and seal enhancer solution was added to facilitate seal formation. Upon completion of sealing, cells were washed 3 times with extracellular recording solution and the assay voltage protocol was started. Human Kv7.2, Kv7.4 or Kv7.5/7.3 channels were evaluated using a voltage protocol in which cells were voltage-clamped at a holding potential of −60 mV. Potassium currents were continuously activated with a series of three voltage steps to −30 mV for 3 seconds, 40 mV for 1 second and −90 mV for 4 seconds with 12 seconds between successive voltage sweeps. Potassium currents were measured from the −90 mV repolarizing step. Baseline current was assessed for 3.5 minutes prior to the addition of 5.6 μM zinc pyrithione (1 μM for Kv7.4). Kv7.2, Kv7.4 or Kv7.5/7.3 current in the presence of zinc pyrithione was acquired over five minutes to allow channels to reach steady state activity prior to addition of test agents. Channel activity was monitored for three minutes preceding the addition of 30 μM ML-213 (3 minutes) to achieve maximum activation. 150 mM TEA with 10 μM XE-991 was applied for 2 minutes to measure the leak current during maximum inhibition of Kv7.2, Kv7.4 or Kv7.5/7.3 channels.
Data were collected on the SyncroPatch platform using PatchControl software (Nanion) and processed and analyzed using DataControl Software (Nanion). Percent activation was calculated from potassium current as follows: The average current for the 5 sweeps in the presence of zinc pyrithione immediately preceding test agent addition was taken as the ‘control’ data. Likewise, the average potassium current in the presence of test agents 5 sweeps immediately preceding addition of 30 μM ML-213 was determined for ‘drug’ data. The average potassium current 5 sweeps immediately prior to addition of 150 mM TEA+10 μM XE-991 was determined for ‘max activation’ data while average currents from 5 sweeps immediately following addition of TEA was determined for ‘max inhibition’ data. Percent activation for each of the 384-wells of a sealchip was calculated as ((‘drug’−‘max inhibition’)/(‘max activation’−‘max inhibition’))*100 with Pipeline Pilot (Accelrys). […]

[1] = Kv7.2 activation max %, relative to 30 μM ML-213 max activation

Compound	EC50	Emax [1]	Kv7.2 Emax [1]
N#Cc1ccnc(CNC(=O)N[C@@H]2C[C@H]2c2ccccc2)c1 [Example 1, 1-[(4-cyanopyridin-2-yl)methyl]-3-[(1R,2S)-2-phenylcyclopropyl]urea]	4.68 µM	73%	
O=C(NCc1ccnc(C2COC2)c1)N[C@@H]1C[C@H]1c1ccccc1 [Example 32]	3.02 µM	40%	
C[C@@H](NC(=O)N[C@@H]1C[C@H]1c1ccccc1)c1ccnc(OC(F)F)c1 (stereo in doubt) [Example 38]	3.81 µM	42%	
CC(C)c1nccc(CNC(=O)N[C@@H]2C[C@H]2C2CCCCC2)n1 (racemic) [Example 4, 1-[(2-propan-2-ylpyrimidin-4-yl)methyl]-3-[rac-(1R,2S)-2-cyclohexylcyclopropyl]urea]	4.4 µM	71%	
N#Cc1cc(CNC(=O)N[C@@H]2C[C@H]2c2ccccc2)ccn1 (racemic) [Example 8, 1-[(2-cyanopyridin-4-yl)methyl]-3-[rac-(1R,2S)-2-phenylcyclopropyl]urea]	4.18 µM	40%	
O=C(NCc1ccnc(-n2ccnc2)c1)NC1CC1C1CCCCC1 (stereo not shown) [Example 11, 1-(2-cyclohexylcyclopropyl)-3-[(2-imidazol-1-ylpyridin-4-yl)methyl]urea]	2.14 µM	52%	
O=C(NCc1ccnc(Cl)c1)N[C@@H]1C[C@H]1c1ccccc1 [Example 19, 1-[(2-chloropyridin-4-yl)methyl]-3-[(1R,2S)-2-phenylcyclopropyl]urea]	6.83 µM	60%	
COc1cc(CNC(=O)N[C@@H]2C[C@H]2c2ccccc2)ccn1 (racemic) [Example 5, 1-[(2-methoxypyridin-4-yl)methyl]-3-[rac-(1R,2S)-2-phenylcyclopropyl]urea]	3.75 µM	44%	
O=C(NCc1ccnc(C(F)F)c1)N[C@@H]1C[C@H]1c1ccccc1 [Example 21, 1-[[2-(difluoromethyl)pyridin-4-yl]methyl]-3-[(1R,2S)-2-phenylcyclopropyl]urea]	3.2 µM	72%	
O=C(NCc1ccnc(-n2ccnc2)c1)N[C@@H]1C[C@H]1c1ccccc1 [Example 27, 1-[(2-imidazol-1-ylpyridin-4-yl)methyl]-3-[(1R,2S)-2-phenylcyclopropyl]urea]	2.84 µM	45%	
O=C(NCc1ccnc(Oc2ccccc2)c1)N[C@@H]1C[C@H]1c1ccccc1 [Example 34, 1-[(2-phenoxypyridin-4-yl)methyl]-3-[(1R,2S)-2-phenylcyclopropyl]urea]	4.78 µM	62%	
1-[(1S,2R)-2-cyclohexylcyclopropyl]-3-[(2-imidazol-1-ylpyridin-4-yl)methyl]urea [Example 15]	1.57 µM		56%

Results, then the compound that gave them:

EC50	Emax [1]	Kv7.2 Emax [1]	Compound
0.78 µM	57%		O=C(NCc1ccnc(-c2cnsc2)c1)N[C@@H]1C[C@H]1C1CCCCC1 (racemic) [Example 40, 1-[rac-(1R,2S)-2-cyclohexylcyclopropyl]-3-[[2-(1,2-thiazol-4-yl)pyridin-4-yl]methyl]urea]
1.56 µM	97%		CC(F)(F)c1cc(CNC(=O)N[C@@H]2C[C@H]2c2ccccc2)ccn1 [Example 26, 1-[[2-(1,1-difluoroethyl)pyridin-4-yl]methyl]-3-[(1R,2S)-2-phenylcyclopropyl]urea]
0.5 µM	44%		O=C(NCc1ccnc(-n2cnc(C(F)(F)F)c2)c1)N[C@@H]1C[C@H]1c1ccccc1 [Example 31, 1-[(1R,2S)-2-phenylcyclopropyl]-3-[[2-[4-(trifluoromethyl)imidazol-1-yl]pyridin-4-yl]methyl]urea]
0.92 µM	63%		O=C(NCc1ccnc(-c2cnco2)c1)N[C@@H]1C[C@H]1C1CCCCC1 (racemic) [Example 23, 1-[[2-(1,3-oxazol-5-yl)pyridin-4-yl]methyl]-3-[rac-(1R,2S)-2-cyclohexylcyclopropyl]urea]
0.88 µM	77%		O=C(NCc1ccnc(OC2CCOCC2)c1)NC1CC1C1CCCCC1 (stereo not shown) [Example 45, 1-(2-cyclohexylcyclopropyl)-3-[[2-(oxan-4-yloxy)pyridin-4-yl]methyl]urea]
0.91 µM	74%		O=C(NCc1ccnc(OCF)c1)N[C@@H]1C[C@H]1c1ccccc1 [Example 37]
0.52 µM	47%		COc1cc([C@H](C)NC(=O)N[C@@H]2C[C@H]2c2ccccc2)ccn1 [Example 29, 1-[(1S)-1-(2-methoxypyridin-4-yl)ethyl]-3-[(1R,2S)-2-phenylcyclopropyl]urea]
0.9 µM	51%		C[C@@H]1C[C@H]1NC(=O)NCc1ccnc(OC(F)F)c1 (racemic) [Example 46, 1-[[2-(difluoromethoxy)pyridin-4-yl]methyl]-3-[rac-(1R,2R)-2-methylcyclopropyl]urea]
0.36 µM	69%		COC[C@@H](Oc1cc(CNC(=O)N[C@@H]2C[C@H]2C(F)(F)F)ccn1)C(F)(F)F (mixture of isomers) [Example 53, 1-[[2-[(2R)-1,1,1-trifluoro-3-methoxypropan-2-yl]oxypyridin-4-yl]methyl]-3-[rac-(1R,2R)-2-(trifluoromethyl)cyclopropyl]urea]
1.19 µM	43%		N#Cc1cc(CNC(=O)N[C@@H]2C[C@H]2c2ccccc2)ccn1 [Example 10, 1-[(2-cyanopyridin-4-yl)methyl]-3-[(1R,2S)-2-phenylcyclopropyl]urea]
0.23 µM	54%		O=C(NCc1ccnc(OC(F)F)c1)N[C@@H]1C[C@H]1C(F)(F)F [Example 41, 1-[[2-(difluoromethoxy)pyridin-4-yl]methyl]-3-[(1R,2R)-2-(trifluoromethyl)cyclopropyl]urea]
0.21 µM	72%		C[C@H](NC(=O)N[C@@H]1C[C@H]1c1ccccc1)c1ccnc(OC(F)F)c1 [Example 30, 1-((S)-1-(2-(difluoromethoxy)pyridin-4-yl)ethyl)-3-((1R,2S)-2-phenylcyclopropyl)urea]
0.96 µM	57%		O=C(NCc1ccnc(OC2COC2)c1)N[C@@H]1C[C@H]1c1ccccc1 [Example 16]
0.67 µM	69%		O=C(NCc1ccnc(-n2cccn2)c1)N[C@@H]1C[C@H]1c1ccccc1 (racemic) [Example 12, 1-[(2-pyrazol-1-ylpyridin-4-yl)methyl]-3-[rac-(1R,2S)-2-phenylcyclopropyl]urea]
0.16 µM	45%		O=C(NCc1ccnc(-n2cnc(C(F)(F)F)c2)c1)N[C@@H]1C[C@H]1C1CCCCC1 (racemic) [Example 24, 1-[rac-(1R,2S)-2-cyclohexylcyclopropyl]-3-[[2-[4-(trifluoromethyl)imidazol-1-yl]pyridin-4-yl]methyl]urea]
0.57 µM	70%		O=C(NCc1ccnc(OCC(F)CF)c1)N[C@@H]1C[C@H]1c1ccccc1 (stereo partly drawn) [Example 48, 1-[[2-(2,3-difluoropropoxy)pyridin-4-yl]methyl]-3-[(1R,2S)-2-phenylcyclopropyl]urea]
1.05 µM	60%		O=C(NCc1ccnc(OC2CCC2)c1)N[C@@H]1C[C@H]1c1ccccc1 [Example 25, 1-[(2-cyclobutyloxypyridin-4-yl)methyl]-3-[(1R,2S)-2-phenylcyclopropyl]urea]
